From the kinase profiling compilation of Christmann-Franck et al. (2016)

Legend:
Assay in all cases: KINOMEscan competition binding
ERBB4 (human) = ERBB4 (human) (UniProt Q15303); conditions: compound 1.0 µM
FRK (human) = FRK (human) (UniProt P42685); conditions: compound 1.0 µM
CHUK (human) = CHUK (human) (UniProt O15111); conditions: compound 1.0 µM
EPHA7 (human) = EPHA7 (human) (UniProt Q15375); conditions: compound 1.0 µM
[1] = test system: PIK3CA (human), P42336 [E542K]; conditions: compound 1.0 µM
AKT1 (human) = AKT1 (human) (UniProt P31749); conditions: compound 1.0 µM
MAPKAPK2 (human) = MAPKAPK2 (human) (UniProt P49137); conditions: compound 1.0 µM
PKN2 (human) = PKN2 (human) (UniProt Q16513); conditions: compound 1.0 µM
[2] = molecular target: JAK1 JH2 pseudokinase (human) (UniProt P23458); conditions: compound 1.0 µM
IKBKB (human) = IKBKB (human) (UniProt O14920); conditions: compound 1.0 µM
FGFR1 (human) = FGFR1 (human) (UniProt P11362); conditions: compound 1.0 µM
CDK14 (human) = CDK14 (human) (UniProt O94921); conditions: compound 1.0 µM
PAK2 (human) = PAK2 (human) (UniProt Q13177); conditions: compound 1.0 µM
MAP3K3 (human) = MAP3K3 (human) (UniProt Q99759); conditions: compound 1.0 µM
PIM1 (human) = PIM1 (human) (UniProt P11309); conditions: compound 1.0 µM
MELK (human) = MELK (human) (UniProt Q14680); conditions: compound 1.0 µM
DDR1 (human) = DDR1 (human) (UniProt Q08345); conditions: compound 1.0 µM
DYRK1A (human) = DYRK1A (human) (UniProt Q13627); conditions: compound 1.0 µM
RAF1 (human) = RAF1 (human) (UniProt P04049); conditions: compound 1.0 µM
AURKA (human) = AURKA (human) (UniProt O14965); conditions: compound 1.0 µM
EPHA2 (human) = EPHA2 (human) (UniProt P29317); conditions: compound 1.0 µM
CSNK1A1L (human) = CSNK1A1L (human) (UniProt Q8N752); conditions: compound 1.0 µM
ZAP70 (human) = ZAP70 (human) (UniProt P43403); conditions: compound 1.0 µM
CDK16 (human) = CDK16 (human) (UniProt Q00536); conditions: compound 1.0 µM
STK35 (human) = STK35 (human) (UniProt Q8TDR2); conditions: compound 1.0 µM
NTRK2 (human) = NTRK2 (human) (UniProt Q16620); conditions: compound 1.0 µM
[3] = molecular target: KIT (human), P10721 [V559D/T670I]; conditions: for kinase still bound, per cent of control: compound 1.0 µM
PIP4K2B (human) = PIP4K2B (human) (UniProt P78356); conditions: compound 1.0 µM
MAP4K4 (human) = MAP4K4 (human) (UniProt O95819); conditions: compound 1.0 µM
SLK (human) = SLK (human) (UniProt Q9H2G2); conditions: compound 1.0 µM
NEK2 (human) = NEK2 (human) (UniProt P51955); conditions: compound 1.0 µM
RPS6KA5 KD2 (human) = RPS6KA5 KD2 (human) (UniProt O75582); conditions: compound 1.0 µM
MAPKAPK5 (human) = MAPKAPK5 (human) (UniProt Q8IW41); conditions: compound 1.0 µM
PAK4 (human) = PAK4 (human) (UniProt O96013); conditions: compound 1.0 µM
LIMK1 (human) = LIMK1 (human) (UniProt P53667); conditions: compound 1.0 µM
PRKCD (human) = PRKCD (human) (UniProt Q05655); conditions: compound 1.0 µM
MAP4K1 (human) = MAP4K1 (human) (UniProt Q92918); conditions: compound 1.0 µM
RPS6KA2 KD1 (human) = RPS6KA2 KD1 (human) (UniProt Q15349); conditions: compound 1.0 µM
[4] = test system: PIK3CA (human), P42336 [H1047Y]; conditions: compound 1.0 µM
CDK4 CCND3 (human) = CDK4 CCND3 (human) (UniProt P11802+P30281); conditions: compound 1.0 µM
CSNK1G2 (human) = CSNK1G2 (human) (UniProt P78368); conditions: compound 1.0 µM
PIK3CD (human) = PIK3CD (human) (UniProt O00329); conditions: compound 1.0 µM

Sequence of KIT (human), P10721 [V559D/T670I] (P10721 whole entry V559D/T670I, looked up): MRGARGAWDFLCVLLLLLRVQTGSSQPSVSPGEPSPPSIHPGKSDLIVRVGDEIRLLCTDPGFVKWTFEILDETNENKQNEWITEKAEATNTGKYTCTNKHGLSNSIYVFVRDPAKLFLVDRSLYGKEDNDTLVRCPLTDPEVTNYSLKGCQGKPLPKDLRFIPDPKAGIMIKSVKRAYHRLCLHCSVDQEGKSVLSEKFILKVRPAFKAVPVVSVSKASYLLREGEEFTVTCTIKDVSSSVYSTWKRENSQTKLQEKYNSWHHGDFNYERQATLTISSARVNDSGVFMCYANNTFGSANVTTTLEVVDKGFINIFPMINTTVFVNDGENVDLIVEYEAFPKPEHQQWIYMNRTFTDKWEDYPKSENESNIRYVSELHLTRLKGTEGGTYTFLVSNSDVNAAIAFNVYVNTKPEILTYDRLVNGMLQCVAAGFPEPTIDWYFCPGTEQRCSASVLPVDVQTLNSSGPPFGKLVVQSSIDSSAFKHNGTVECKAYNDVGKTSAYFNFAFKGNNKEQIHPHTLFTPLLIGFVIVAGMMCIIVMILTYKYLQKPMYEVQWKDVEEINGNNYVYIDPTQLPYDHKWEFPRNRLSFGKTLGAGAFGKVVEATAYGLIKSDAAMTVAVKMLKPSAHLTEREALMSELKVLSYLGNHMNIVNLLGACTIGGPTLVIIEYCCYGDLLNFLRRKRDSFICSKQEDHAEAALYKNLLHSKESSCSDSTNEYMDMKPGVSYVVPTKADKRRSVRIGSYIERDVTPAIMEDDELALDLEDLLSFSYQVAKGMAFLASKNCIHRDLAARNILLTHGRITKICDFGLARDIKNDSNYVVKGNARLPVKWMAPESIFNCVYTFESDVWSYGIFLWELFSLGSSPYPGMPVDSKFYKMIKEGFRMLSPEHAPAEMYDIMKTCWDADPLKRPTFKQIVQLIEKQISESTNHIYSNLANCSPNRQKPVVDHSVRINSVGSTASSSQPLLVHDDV
Sequence of MAP4K4 (human) (O95819 whole entry, looked up): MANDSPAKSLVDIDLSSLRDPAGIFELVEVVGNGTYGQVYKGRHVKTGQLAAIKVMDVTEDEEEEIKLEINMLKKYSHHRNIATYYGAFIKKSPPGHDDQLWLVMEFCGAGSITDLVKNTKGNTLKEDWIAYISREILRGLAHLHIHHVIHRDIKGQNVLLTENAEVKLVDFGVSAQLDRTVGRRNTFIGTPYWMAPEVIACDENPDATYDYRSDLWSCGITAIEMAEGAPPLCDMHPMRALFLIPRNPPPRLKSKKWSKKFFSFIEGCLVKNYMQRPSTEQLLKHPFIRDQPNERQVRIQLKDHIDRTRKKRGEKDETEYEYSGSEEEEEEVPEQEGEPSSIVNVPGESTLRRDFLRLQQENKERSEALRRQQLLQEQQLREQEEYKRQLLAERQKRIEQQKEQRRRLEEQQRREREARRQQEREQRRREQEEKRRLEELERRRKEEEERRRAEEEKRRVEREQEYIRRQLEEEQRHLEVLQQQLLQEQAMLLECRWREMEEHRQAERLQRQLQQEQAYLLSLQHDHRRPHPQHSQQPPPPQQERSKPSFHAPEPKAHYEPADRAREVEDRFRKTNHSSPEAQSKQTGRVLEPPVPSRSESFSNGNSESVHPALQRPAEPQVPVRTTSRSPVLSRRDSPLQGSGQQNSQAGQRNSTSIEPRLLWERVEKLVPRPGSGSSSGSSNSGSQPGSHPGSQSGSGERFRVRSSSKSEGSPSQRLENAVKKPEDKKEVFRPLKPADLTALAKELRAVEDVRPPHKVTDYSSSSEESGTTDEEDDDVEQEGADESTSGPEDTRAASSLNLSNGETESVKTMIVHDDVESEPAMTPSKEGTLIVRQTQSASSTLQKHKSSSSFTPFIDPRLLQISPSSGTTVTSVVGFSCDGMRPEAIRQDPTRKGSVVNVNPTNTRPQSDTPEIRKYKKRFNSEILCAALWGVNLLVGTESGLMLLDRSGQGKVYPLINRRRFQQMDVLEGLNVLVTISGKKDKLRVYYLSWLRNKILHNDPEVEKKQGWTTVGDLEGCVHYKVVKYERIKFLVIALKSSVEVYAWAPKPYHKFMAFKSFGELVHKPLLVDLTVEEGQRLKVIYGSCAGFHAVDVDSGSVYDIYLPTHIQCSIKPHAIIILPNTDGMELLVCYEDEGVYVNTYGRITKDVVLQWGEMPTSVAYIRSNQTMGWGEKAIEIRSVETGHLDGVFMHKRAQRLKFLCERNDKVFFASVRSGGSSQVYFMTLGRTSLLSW
Sequence of FRK (human) (P42685 whole entry, looked up): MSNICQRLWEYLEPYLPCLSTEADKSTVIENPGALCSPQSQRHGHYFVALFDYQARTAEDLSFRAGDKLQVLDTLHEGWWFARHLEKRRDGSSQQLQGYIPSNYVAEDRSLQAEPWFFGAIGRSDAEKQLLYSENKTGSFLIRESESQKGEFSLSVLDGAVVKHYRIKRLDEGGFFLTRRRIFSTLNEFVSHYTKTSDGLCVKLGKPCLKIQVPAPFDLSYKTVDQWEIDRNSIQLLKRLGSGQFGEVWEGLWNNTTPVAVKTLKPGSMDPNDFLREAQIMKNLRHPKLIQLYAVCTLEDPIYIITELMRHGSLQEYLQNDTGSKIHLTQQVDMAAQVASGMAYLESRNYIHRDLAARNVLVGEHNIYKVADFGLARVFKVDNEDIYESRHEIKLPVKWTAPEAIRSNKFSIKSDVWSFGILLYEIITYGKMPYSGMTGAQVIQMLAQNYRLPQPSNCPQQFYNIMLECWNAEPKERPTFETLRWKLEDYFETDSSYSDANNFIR
Sequence of MELK (human) (Q14680 whole entry, looked up): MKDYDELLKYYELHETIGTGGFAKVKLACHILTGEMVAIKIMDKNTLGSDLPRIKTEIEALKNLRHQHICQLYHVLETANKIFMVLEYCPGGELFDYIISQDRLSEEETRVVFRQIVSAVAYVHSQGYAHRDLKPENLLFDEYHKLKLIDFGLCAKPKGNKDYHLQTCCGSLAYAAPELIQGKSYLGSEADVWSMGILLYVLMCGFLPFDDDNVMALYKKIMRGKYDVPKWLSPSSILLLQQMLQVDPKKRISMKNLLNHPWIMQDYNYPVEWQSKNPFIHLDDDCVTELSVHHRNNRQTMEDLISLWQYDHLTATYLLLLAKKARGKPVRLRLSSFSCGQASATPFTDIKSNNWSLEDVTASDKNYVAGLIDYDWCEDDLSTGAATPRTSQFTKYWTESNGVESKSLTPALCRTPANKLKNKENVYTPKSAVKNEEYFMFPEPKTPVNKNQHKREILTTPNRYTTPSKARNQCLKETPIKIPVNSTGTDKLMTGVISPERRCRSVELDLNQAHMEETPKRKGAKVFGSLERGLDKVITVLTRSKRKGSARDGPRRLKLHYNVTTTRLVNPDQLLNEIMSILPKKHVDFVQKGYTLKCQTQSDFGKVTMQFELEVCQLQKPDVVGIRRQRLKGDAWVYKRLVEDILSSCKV
Sequence of MAPKAPK5 (human) (Q8IW41 whole entry, looked up): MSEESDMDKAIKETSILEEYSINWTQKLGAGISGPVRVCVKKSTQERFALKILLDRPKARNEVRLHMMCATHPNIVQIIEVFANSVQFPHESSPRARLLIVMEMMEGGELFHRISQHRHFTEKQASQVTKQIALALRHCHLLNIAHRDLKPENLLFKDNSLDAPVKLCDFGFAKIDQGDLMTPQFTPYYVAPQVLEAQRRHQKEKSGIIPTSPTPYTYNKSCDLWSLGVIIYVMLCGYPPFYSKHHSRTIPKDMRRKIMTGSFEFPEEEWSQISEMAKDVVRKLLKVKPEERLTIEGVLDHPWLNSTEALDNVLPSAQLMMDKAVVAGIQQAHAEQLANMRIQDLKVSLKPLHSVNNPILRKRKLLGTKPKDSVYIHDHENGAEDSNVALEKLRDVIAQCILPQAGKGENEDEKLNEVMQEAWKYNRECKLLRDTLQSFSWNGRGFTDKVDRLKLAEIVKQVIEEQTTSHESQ
Sequence of IKBKB (human) (O14920 whole entry, looked up): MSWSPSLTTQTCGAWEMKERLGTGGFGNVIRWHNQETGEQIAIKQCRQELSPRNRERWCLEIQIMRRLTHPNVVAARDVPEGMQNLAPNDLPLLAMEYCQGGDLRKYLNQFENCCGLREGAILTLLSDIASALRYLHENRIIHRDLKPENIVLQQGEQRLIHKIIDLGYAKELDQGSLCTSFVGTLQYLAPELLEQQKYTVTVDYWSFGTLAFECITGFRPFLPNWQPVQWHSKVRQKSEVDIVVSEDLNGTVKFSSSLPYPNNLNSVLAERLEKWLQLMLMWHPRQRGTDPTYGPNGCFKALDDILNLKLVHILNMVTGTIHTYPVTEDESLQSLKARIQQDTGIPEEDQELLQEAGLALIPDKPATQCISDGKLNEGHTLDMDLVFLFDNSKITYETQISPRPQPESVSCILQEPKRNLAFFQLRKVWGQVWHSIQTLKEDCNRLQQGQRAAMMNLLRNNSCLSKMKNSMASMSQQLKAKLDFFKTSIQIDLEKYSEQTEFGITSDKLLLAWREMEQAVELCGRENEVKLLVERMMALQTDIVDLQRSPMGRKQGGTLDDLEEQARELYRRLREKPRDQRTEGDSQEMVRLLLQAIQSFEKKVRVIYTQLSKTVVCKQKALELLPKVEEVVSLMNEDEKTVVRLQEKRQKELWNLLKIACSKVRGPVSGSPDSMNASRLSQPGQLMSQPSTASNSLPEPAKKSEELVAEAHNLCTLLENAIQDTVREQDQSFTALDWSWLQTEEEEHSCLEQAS
Sequence of CDK14 (human) (O94921 whole entry, looked up): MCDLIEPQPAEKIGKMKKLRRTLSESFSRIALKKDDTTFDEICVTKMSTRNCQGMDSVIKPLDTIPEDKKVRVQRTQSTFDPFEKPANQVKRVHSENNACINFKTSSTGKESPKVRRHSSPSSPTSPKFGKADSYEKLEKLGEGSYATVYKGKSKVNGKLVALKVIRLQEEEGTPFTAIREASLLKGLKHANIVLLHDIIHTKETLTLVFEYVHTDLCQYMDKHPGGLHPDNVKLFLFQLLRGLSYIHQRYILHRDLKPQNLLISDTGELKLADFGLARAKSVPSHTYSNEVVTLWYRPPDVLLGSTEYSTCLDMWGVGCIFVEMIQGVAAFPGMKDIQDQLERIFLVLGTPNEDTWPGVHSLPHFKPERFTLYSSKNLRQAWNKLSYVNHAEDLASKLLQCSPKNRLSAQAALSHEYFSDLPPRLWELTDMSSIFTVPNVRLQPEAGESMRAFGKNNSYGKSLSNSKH

## CN(C)C/C=C/C(=O)Nc1cccc(C(=O)Nc2ccc(Nc3nccc(/C(C#N)=C4\Nc5ccccc5S4)n3)cc2)c1
ERBB4 (human)
  kinase still bound, per cent of control: 100%
FRK (human)
  kinase still bound, per cent of control: 100%
CHUK (human)
  kinase still bound, per cent of control: 100%
EPHA7 (human)
  kinase still bound, per cent of control: 100%
[1]
  kinase still bound, per cent of control: 100%
AKT1 (human)
  kinase still bound, per cent of control: 6.6%
MAPKAPK2 (human)
  kinase still bound, per cent of control: 92%
PKN2 (human)
  kinase still bound, per cent of control: 87%
[2]
  kinase still bound, per cent of control: 81%
IKBKB (human)
  kinase still bound, per cent of control: 87%
FGFR1 (human)
  kinase still bound, per cent of control: 100%
CDK14 (human)
  kinase still bound, per cent of control: 100%
PAK2 (human)
  kinase still bound, per cent of control: 100%
MAP3K3 (human)
  kinase still bound, per cent of control: 100%
PIM1 (human)
  kinase still bound, per cent of control: 100%
MELK (human)
  kinase still bound, per cent of control: 100%
DDR1 (human)
  kinase still bound, per cent of control: 59%
DYRK1A (human)
  kinase still bound, per cent of control: 87%
RAF1 (human)
  kinase still bound, per cent of control: 91%
AURKA (human)
  kinase still bound, per cent of control: 100%
EPHA2 (human)
  kinase still bound, per cent of control: 100%
CSNK1A1L (human)
  kinase still bound, per cent of control: 100%
ZAP70 (human)
  kinase still bound, per cent of control: 81%
CDK16 (human)
  kinase still bound, per cent of control: 100%
STK35 (human)
  kinase still bound, per cent of control: 97%
NTRK2 (human)
  kinase still bound, per cent of control: 100%
[3]
  Kd: 160 nM
  kinase still bound, per cent of control: 6.6%
PIP4K2B (human)
  kinase still bound, per cent of control: 81%
MAP4K4 (human)
  kinase still bound, per cent of control: 100%
SLK (human)
  kinase still bound, per cent of control: 8.6%
NEK2 (human)
  kinase still bound, per cent of control: 99%
RPS6KA5 KD2 (human)
  kinase still bound, per cent of control: 100%
MAPKAPK5 (human)
  kinase still bound, per cent of control: 100%
PAK4 (human)
  kinase still bound, per cent of control: 100%
LIMK1 (human)
  kinase still bound, per cent of control: 100%
PRKCD (human)
  kinase still bound, per cent of control: 47%
MAP4K1 (human)
  kinase still bound, per cent of control: 100%
RPS6KA2 KD1 (human)
  kinase still bound, per cent of control: 98%
[4]
  kinase still bound, per cent of control: 100%
CDK4 CCND3 (human)
  kinase still bound, per cent of control: 100%
CSNK1G2 (human)
  kinase still bound, per cent of control: 22%
PIK3CD (human)
  kinase still bound, per cent of control: 100%

## CN(C)C/C=C/C(=O)Nc1cccc(C(=O)Nc2ccc(Nc3nccc(-c4cccnc4)n3)cc2)c1
ERBB4 (human)
  kinase still bound, per cent of control: 100%
FRK (human)
  kinase still bound, per cent of control: 90%
CHUK (human)
  kinase still bound, per cent of control: 53%
EPHA7 (human)
  kinase still bound, per cent of control: 86%
[1]
  kinase still bound, per cent of control: 82%
AKT1 (human)
  kinase still bound, per cent of control: 87%
MAPKAPK2 (human)
  kinase still bound, per cent of control: 100%
PKN2 (human)
  kinase still bound, per cent of control: 33%
[2]
  kinase still bound, per cent of control: 8.6%
IKBKB (human)
  kinase still bound, per cent of control: 48%
FGFR1 (human)
  kinase still bound, per cent of control: 90%
CDK14 (human)
  kinase still bound, per cent of control: 53%
PAK2 (human)
  kinase still bound, per cent of control: 87%
MAP3K3 (human)
  kinase still bound, per cent of control: 77%
PIM1 (human)
  kinase still bound, per cent of control: 94%
MELK (human)
  kinase still bound, per cent of control: 30%
DDR1 (human)
  kinase still bound, per cent of control: 100%
DYRK1A (human)
  kinase still bound, per cent of control: 37%
RAF1 (human)
  kinase still bound, per cent of control: 100%
AURKA (human)
  kinase still bound, per cent of control: 67%
EPHA2 (human)
  kinase still bound, per cent of control: 86%
CSNK1A1L (human)
  kinase still bound, per cent of control: 37%
ZAP70 (human)
  kinase still bound, per cent of control: 100%
CDK16 (human)
  kinase still bound, per cent of control: 89%
STK35 (human)
  kinase still bound, per cent of control: 67%
NTRK2 (human)
  kinase still bound, per cent of control: 94%
[3]
  kinase still bound, per cent of control: 9.8%
PIP4K2B (human)
  kinase still bound, per cent of control: 18%
MAP4K4 (human)
  kinase still bound, per cent of control: 40%
SLK (human)
  kinase still bound, per cent of control: 100%
NEK2 (human)
  kinase still bound, per cent of control: 86%
RPS6KA5 KD2 (human)
  kinase still bound, per cent of control: 100%
MAPKAPK5 (human)
  kinase still bound, per cent of control: 68%
PAK4 (human)
  kinase still bound, per cent of control: 79%
LIMK1 (human)
  kinase still bound, per cent of control: 71%
PRKCD (human)
  kinase still bound, per cent of control: 76%
MAP4K1 (human)
  kinase still bound, per cent of control: 79%
RPS6KA2 KD1 (human)
  kinase still bound, per cent of control: 100%
[4]
  kinase still bound, per cent of control: 100%
CDK4 CCND3 (human)
  kinase still bound, per cent of control: 61%
CSNK1G2 (human)
  kinase still bound, per cent of control: 12%
PIK3CD (human)
  kinase still bound, per cent of control: 100%
